# From PubChem BioAssay AID1963825 (Molecular Pharmacology Branch, DTP, NCI, 2024)
# Test: Anticancer human tumor 997537-175-T-J1-PDC patient-derived colon adenocarcinoma cell line growth inhibition [POLQ]
# Details: 997537-175-T-J1-PDC complex spheroid viability, combination with POLQ inhibitors; for IC50: curve of first compound; for viability, T/C: stronger effect = lower value
# Method in brief: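 Patient-derived tumour cells were co-cultured with HUVEC and mesenchymal stem cells as multicellular spheroids at 37 °C. They were treated with POLQ inhibitors (novobiocin, ART-558, RP6685) alone or combined with other agents. Top concentrations were at or near clinical Cmax (otherwise 10 microM; SN-38 at 1 microM), decreasing in half-log steps.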
# [1] = second compound 0.0316 µM, first compound 0.0316 µM
# [2] = second compound 0.0316 µM, first compound 0.1 µM
# [3] = second compound 0.0316 µM, first compound 0.316 µM
# [4] = second compound 0.0316 µM, first compound 1 µM
# [5] = second compound 0.0316 µM, first compound 3.16 µM
# [6] = second compound 0.0316 µM, first compound 10 µM
# [7] = second compound 0.1 µM, first compound 0.0316 µM
# [8] = second compound 0.1 µM, first compound 0.1 µM
# [9] = second compound 0.1 µM, first compound 0.316 µM
# [10] = second compound 0.1 µM, first compound 1 µM
# [11] = second compound 0.1 µM, first compound 3.16 µM
# [12] = second compound 0.1 µM, first compound 10 µM
# [13] = second compound 0.316 µM, first compound 0.0316 µM
# [14] = second compound 0.316 µM, first compound 0.1 µM
# [15] = second compound 0.316 µM, first compound 0.316 µM
# [16] = second compound 0.316 µM, first compound 1 µM
# [17] = second compound 0.316 µM, first compound 3.16 µM
# [18] = second compound 0.316 µM, first compound 10 µM
# [19] = second compound 1 µM, first compound 0.0316 µM
# [20] = second compound 1 µM, first compound 0.1 µM
# [21] = second compound 1 µM, first compound 0.316 µM
# [22] = second compound 1 µM, first compound 1 µM
# [23] = second compound 1 µM, first compound 3.16 µM
# [24] = second compound 1 µM, first compound 10 µM
# [25] = second compound 3.16 µM, first compound 0.0316 µM
# [26] = second compound 3.16 µM, first compound 0.1 µM
# [27] = second compound 3.16 µM, first compound 0.316 µM
# [28] = second compound 3.16 µM, first compound 1 µM
# [29] = second compound 3.16 µM, first compound 3.16 µM
# [30] = second compound 3.16 µM, first compound 10 µM
# [31] = second compound 10 µM, first compound 0.0316 µM
# [32] = second compound 10 µM, first compound 0.1 µM
# [33] = second compound 10 µM, first compound 0.316 µM
# [34] = second compound 10 µM, first compound 1 µM
# [35] = second compound 10 µM, first compound 3.16 µM
# [36] = second compound 10 µM, first compound 10 µM
# 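Note: luminescence signal used as a surrogate for viable cells; spheroids exposed to drugs for seven days before readout.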
structure (smiles),measurement,setting,value
CCCS(=O)(=O)Nc1ccc(F)c(C(=O)c2c[nH]c3ncc(-c4ccc(Cl)cc4)cc23)c1F + Nc1ccc(C#CCN(C(=O)Cc2ncc(C(F)(F)F)cc2C(F)(F)F)c2ccc(F)cc2)nn1,IC50,second compound 0.0316 µM,5.51 µM
same,IC50,second compound 0.1 µM,7.31 µM
same,IC50,second compound 0.316 µM,5.97 µM
same,IC50,second compound 1 µM,5.25 µM
same,IC50,second compound 3.16 µM,6 µM
same,IC50,second compound 10 µM,6.76 µM
same,"viability, T/C",[1],81.8%
same,"viability, T/C",[2],88.9%
same,"viability, T/C",[3],80.7%
same,"viability, T/C",[4],70.3%
same,"viability, T/C",[5],74.2%
same,"viability, T/C",[6],27.2%
same,"viability, T/C",[7],101%
same,"viability, T/C",[8],86.5%
same,"viability, T/C",[9],80.9%
same,"viability, T/C",[10],71.3%
same,"viability, T/C",[11],82.8%
same,"viability, T/C",[12],37.9%
same,"viability, T/C",[13],90.3%
same,"viability, T/C",[14],88.3%
same,"viability, T/C",[15],78.4%
same,"viability, T/C",[16],71.9%
same,"viability, T/C",[17],79.3%
same,"viability, T/C",[18],26.4%
same,"viability, T/C",[19],84.9%
same,"viability, T/C",[20],96.4%
same,"viability, T/C",[21],84.2%
same,"viability, T/C",[22],86.4%
same,"viability, T/C",[23],66.8%
same,"viability, T/C",[24],28.5%
same,"viability, T/C",[25],85.5%
same,"viability, T/C",[26],89.3%
same,"viability, T/C",[27],89.5%
same,"viability, T/C",[28],79.3%
same,"viability, T/C",[29],73.1%
same,"viability, T/C",[30],32.6%
same,"viability, T/C",[31],104%
same,"viability, T/C",[32],83.5%
same,"viability, T/C",[33],94%
same,"viability, T/C",[34],77.5%
same,"viability, T/C",[35],71.4%
same,"viability, T/C",[36],39.9%
CNCc1ccc(-c2[nH]c3cc(F)cc4c3c2CCNC4=O)cc1 + Nc1ccc(C#CCN(C(=O)Cc2ncc(C(F)(F)F)cc2C(F)(F)F)c2ccc(F)cc2)nn1,IC50,second compound 0.0316 µM,> 10 µM
same,IC50,second compound 0.1 µM,> 10 µM
same,IC50,second compound 0.316 µM,> 10 µM
same,IC50,second compound 1 µM,> 10 µM
same,IC50,second compound 3.16 µM,> 10 µM
same,IC50,second compound 10 µM,> 10 µM
same,"viability, T/C",[1],106%
same,"viability, T/C",[2],102%
same,"viability, T/C",[3],100%
same,"viability, T/C",[4],97.1%
same,"viability, T/C",[5],103%
same,"viability, T/C",[6],104%
same,"viability, T/C",[7],98.6%
same,"viability, T/C",[8],102%
same,"viability, T/C",[9],93.2%
same,"viability, T/C",[10],95.5%
same,"viability, T/C",[11],99.2%
same,"viability, T/C",[12],101%
same,"viability, T/C",[13],87.3%
same,"viability, T/C",[14],108%
same,"viability, T/C",[15],106%
same,"viability, T/C",[16],90.8%
same,"viability, T/C",[17],97.7%
same,"viability, T/C",[18],99.7%
same,"viability, T/C",[19],90%
same,"viability, T/C",[20],108%
same,"viability, T/C",[21],102%
same,"viability, T/C",[22],94.6%
same,"viability, T/C",[23],110%
same,"viability, T/C",[24],89.8%
same,"viability, T/C",[25],93.1%
same,"viability, T/C",[26],95.6%
same,"viability, T/C",[27],85.1%
same,"viability, T/C",[28],99.1%
same,"viability, T/C",[29],96.2%
same,"viability, T/C",[30],111%
same,"viability, T/C",[31],87.4%
same,"viability, T/C",[32],104%
same,"viability, T/C",[33],101%
same,"viability, T/C",[34],96.8%
same,"viability, T/C",[35],110%
same,"viability, T/C",[36],114%
COc1ccc([C@@H](O)c2cc(-c3ncnc4cc(N5CCOCC5)ccc34)c(F)cc2Cl)nn1 + Nc1ccc(C#CCN(C(=O)Cc2ncc(C(F)(F)F)cc2C(F)(F)F)c2ccc(F)cc2)nn1,IC50,second compound 0.0316 µM,> 10 µM
same,IC50,second compound 0.1 µM,> 10 µM
same,IC50,second compound 0.316 µM,> 10 µM
same,IC50,second compound 1 µM,> 10 µM
same,IC50,second compound 3.16 µM,> 10 µM
same,IC50,second compound 10 µM,> 10 µM
same,"viability, T/C",[1],95%
same,"viability, T/C",[2],110%
same,"viability, T/C",[3],100%
same,"viability, T/C",[4],101%
same,"viability, T/C",[5],85%
same,"viability, T/C",[6],74.3%
same,"viability, T/C",[7],98.8%
same,"viability, T/C",[8],110%
same,"viability, T/C",[9],99%
same,"viability, T/C",[10],98.3%
same,"viability, T/C",[11],71.5%
same,"viability, T/C",[12],71%
same,"viability, T/C",[13],110%
same,"viability, T/C",[14],109%
same,"viability, T/C",[15],91%
same,"viability, T/C",[16],99.1%
same,"viability, T/C",[17],96.1%
same,"viability, T/C",[18],65.6%
same,"viability, T/C",[19],96%
same,"viability, T/C",[20],98.2%
same,"viability, T/C",[21],94.7%
same,"viability, T/C",[22],91.6%
same,"viability, T/C",[23],79.3%
same,"viability, T/C",[24],94.2%
same,"viability, T/C",[25],107%
same,"viability, T/C",[26],99.1%
same,"viability, T/C",[27],96.7%
same,"viability, T/C",[28],96.6%
same,"viability, T/C",[29],87.6%
same,"viability, T/C",[30],82.1%
same,"viability, T/C",[31],99.5%
same,"viability, T/C",[32],107%
same,"viability, T/C",[33],95.7%
same,"viability, T/C",[34],95.8%
same,"viability, T/C",[35],85.3%
same,"viability, T/C",[36],92.7%
